Experimental findings from US20260022142A1, “MACROCYCLIC IMMUNOMODULATORS” (Bristol-Myers Squibb Company, priority 2022, published 2026) are described below.

The structures appear in SMILES notation. Bridge positions count the residues as written; N and C are the ends. Square brackets hold non-standard residues; d marks the D form. Peptide text beside a SMILES is read from it. * marks the point of attachment. ξ: configuration not given here. Phe(3-CF3) = N[C@@H](Cc1cccc(C(F)(F)F)c1)C(=O)O; Phe(4-COOH) = N[C@@H](Cc1ccc(C(=O)O)cc1)C(=O)O; Bip = N[C@@H](Cc1ccc(-c2ccccc2)cc1)C(=O)O; NH(CH2)14COOH = O=C(O)CCCCCCCCCCCCCCN*; Phe(3-Me) = Cc1cccc(C[C@H](N)C(=O)O)c1; Phe(4-F) = N[C@@H](Cc1ccc(F)cc1)C(=O)O; NH(CH2)12COOH = O=C(O)CCCCCCCCCCCCN*; His(π-Me) = Cn1cncc1C[C@H](N)C(=O)O; Val(3-OH) = CC(C)(O)[C@H](N)C(=O)O; Val(3-F) = CC(C)(F)[C@H](N)C(=O)O; hArg = N=C(N)NCCCC[C@H](N)C(=O)O; 4Pal = N[C@@H](Cc1ccncc1)C(=O)O; Cha = N[C@@H](CC1CCCCC1)C(=O)O; Cit = NC(=O)NCCC[C@H](N)C(=O)O; Thr(3ξ) = CC(O)[C@H](N)C(=O)O; PEG4 = NCCOCCOCCOCCOCCC(=O)O; Carboxymethyl = O=C(O)C*; Orn = NCCC[C@H](N)C(=O)O; Aun = NCCCCCCCCCCC(=O)O; Dab = NCC[C@H](N)C(=O)O; Nva = CCC[C@H](N)C(=O)O; Dap = NC[C@H](N)C(=O)O; AEEA = NCCOCCOCC(=O)O; CF3 = FC(F)(F)*

T1 sequence (Q15116 25-288): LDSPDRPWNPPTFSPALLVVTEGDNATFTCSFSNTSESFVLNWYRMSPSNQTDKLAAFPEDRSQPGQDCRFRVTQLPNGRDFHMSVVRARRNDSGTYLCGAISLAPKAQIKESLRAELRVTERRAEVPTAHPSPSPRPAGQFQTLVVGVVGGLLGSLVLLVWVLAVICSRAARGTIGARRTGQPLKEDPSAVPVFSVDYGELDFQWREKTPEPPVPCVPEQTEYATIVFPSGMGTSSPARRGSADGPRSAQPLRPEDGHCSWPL

This test concerns the target T1, PD-1/PD-L1 interaction (PE-labeled human PD-L1-Ig binding to Jurkat cell line over-expressing human PD-1) (Homo sapiens, UniProt Q15116).
T1 construct: expressed in transfected cells; host or cells: Jurkat
Kind of test: Jurkat-PD-1 Cell Binding High-Content Screening Assay (CBA). In kind it is cell-based. The following applies: Jurkat cell line over-expressing human PD-1; PE-labeled PD-L1-Ig 20 nM final; read-out: Jurkat hPD1-PDL1 IC50. In outline: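 Binding of fluorescent PD-L1-Ig (phycoerythrin on Ig tag, 20 nM final, 1 h) measured by high-content imaging of fixed, Hoechst-counterstained Jurkat-hPD-1 cells. Compound added 2 h at 37° C beforehand, in DMEM with 10% fetal calf serum.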
A word on the IC50: it is the concentration needed to halve the response being measured. For the molecule `Cc1cccc(C[C@@H]2NC(=O)[C@H](CC(=O)O)NC(=O)[C@H](Cc3ccc(OCC(=O)O)cc3)NC(=O)[C@H](CCN)NC(=O)CSC[C@@H](C(=O)N[C@@H](CCN)C(=O)NCCOCCOCC(=O)NCCOCCOCC(=O)NCCCCCCCCCCC(=O)O)NC(=O)[C@H](Cc3cnc[nH]3)NC(=O)[C@H](C(C)C)NC(=O)[C@H](CC3CCCCC3)NC(=O)[C@H](CCN)NC(=O)[C@@H](CC(C)C)NC(=O)[C@H](CCCN)NC(=O)[C@H](Cc3ccc(C(=O)O)cc3)NC(=O)[C@H](Cc3ccc(-c4ccccc4)cc3)NC(=O)[C@H](Cc3ccc(C(=O)O)cc3)NC2=O)c1` [Compound 3757] ({CH2CO}-[Dab]Y(Carboxymethyl)D[Phe(3-Me)][Phe(4-COOH)][Bip][Phe(4-COOH)][Orn][dL][Dab][Cha]VHC[Dab][AEEA][AEEA][Aun]-OH; thioether N-14), the IC50 was 0.0026 µM. The same measure for `CC(C)C[C@H]1NC(=O)[C@H](CCCN)NC(=O)[C@H](C(C)C)NC(=O)[C@H](Cc2ccc(-c3ccccc3)cc2)NC(=O)[C@H](C(C)C)NC(=O)[C@H](Cc2c[nH]c3ccccc23)NC(=O)[C@H](CC(=O)O)NC(=O)[C@H](Cc2ccc(OCC(=O)O)cc2)NC(=O)[C@H](CN)NC(=O)CSC[C@@H](C(=O)N[C@@H](C)C(=O)N[C@@H](CCC(=O)O)C(=O)NCCCCCCCCCCC(=O)O)NC(=O)[C@H]([C@@H](C)O)NC(=O)[C@H](C(C)C)NC(=O)[C@H](CC2CCCCC2)NC(=O)[C@H](Cc2cnc[nH]2)NC1=O` [Compound 1080] ({CH2CO}-[Dap]Y(Carboxymethyl)DWV[Bip]V[Orn][dL]H[Cha]VTCAE[Aun]-OH; thioether N-14): 0.0357 µM; for `Cc1cccc(C[C@@H]2NC(=O)[C@H](CC(=O)O)NC(=O)[C@H](Cc3ccc(OCC(=O)O)cc3)NC(=O)[C@H](Cc3cncn3C)NC(=O)CSC[C@@H](C(=O)N[C@@H](CCN)C(=O)NCCCCCCCCCCC(=O)O)NC(=O)[C@H]([C@@H](C)O)NC(=O)[C@H](C(C)C)NC(=O)[C@H](CC3CCCCC3)NC(=O)[C@H](CCN)NC(=O)[C@@H](CC(C)C)NC(=O)[C@H](CCCN)NC(=O)[C@H](CCCNC(N)=O)NC(=O)[C@H](Cc3ccc(-c4ccccc4)cc3)NC(=O)[C@H](C(C)C)NC2=O)c1` [Compound 2034] ({CH2CO}-[His(π-Me)]Y(Carboxymethyl)D[Phe(3-Me)]V[Bip][Cit][Orn][dL][Dab][Cha]VTC[Dab][Aun]-OH; thioether N-14): 0.0155 µM; for `CC(C)C[C@H]1NC(=O)[C@H](CCCN)NC(=O)[C@H](C(C)C)NC(=O)[C@H](Cc2ccc(-c3ccccc3)cc2)NC(=O)[C@H](C(C)C)NC(=O)[C@H](Cc2c[nH]c3ccccc23)NC(=O)[C@H](CC(=O)O)NC(=O)[C@H](Cc2ccc(OCC(=O)O)cc2)NC(=O)[C@H](Cc2c[nH]cn2)NC(=O)CSC[C@@H](C(=O)N[C@H](C)C(=O)NCCOCCOCC(=O)NCCCCCCCCCCC(=O)O)NC(=O)[C@H](C(C)O)NC(=O)[C@H](C(C)C)NC(=O)[C@H](CC2CCCCC2)NC(=O)[C@H](CCN)NC1=O` (stereo partly drawn) [Compound 3054] ({CH2CO}-HY(Carboxymethyl)DWV[Bip]V[Orn][dL][Dab][Cha]V[Thr(3ξ)]C[dA][AEEA][Aun]-OH; thioether N-14): 0.0146 µM. Take `Cc1cccc(C[C@@H]2NC(=O)[C@H](CC(=O)O)NC(=O)[C@H](Cc3ccc(OCC(=O)O)cc3)NC(=O)[C@H](CCCCNC(=N)N)NC(=O)CSC[C@@H](C(=O)N[C@@H](CCCCN)C(=O)NCCCCCCCCCCC(=O)O)NC(=O)[C@H](C(C)O)NC(=O)[C@H](C(C)C)NC(=O)[C@H](CC3CCCCC3)NC(=O)[C@H](Cc3cnc[nH]3)NC(=O)[C@@H](CC(C)C)NC(=O)[C@H](CCCN)NC(=O)[C@H](CCC(=O)O)NC(=O)[C@H](Cc3ccc(-c4ccccc4)cc3)NC(=O)[C@H](C(C)C)NC2=O)c1` (stereo partly drawn) [Compound 3161] ({CH2CO}-[hArg]Y(Carboxymethyl)D[Phe(3-Me)]V[Bip]E[Orn][dL]H[Cha]V[Thr(3ξ)]CK[Aun]-OH; thioether N-14): the IC50 is 0.0389 µM.

As to `Cc1cccc(C[C@@H]2NC(=O)[C@H](CC(=O)O)NC(=O)[C@H](Cc3ccc(OCC(=O)O)cc3)NC(=O)[C@H](CCCNC(=N)N)NC(=O)CSC[C@@H](C(=O)N[C@@H](CCN)C(=O)NCCCCCCCCCCC(=O)O)NC(=O)[C@H]([C@@H](C)O)NC(=O)[C@H](C(C)C)NC(=O)[C@H](CC3CCCCC3)NC(=O)[C@H](CCN)NC(=O)[C@@H](CC(C)C)NC(=O)[C@H](CCCN)NC(=O)[C@H](Cc3ccc(OCC(=O)O)cc3)NC(=O)[C@H](Cc3ccc(-c4ccccc4)cc3)NC(=O)[C@H](C(C)(C)F)NC2=O)c1` [Compound 2123] ({CH2CO}-RY(Carboxymethyl)D[Phe(3-Me)][Val(3-F)][Bip]Y(Carboxymethyl)[Orn][dL][Dab][Cha]VTC[Dab][Aun]-OH; thioether N-14), the concentration for half-maximal inhibition (IC50) is 0.0141 µM.

Regarding `Cc1cccc(C[C@@H]2NC(=O)[C@H](CC(=O)O)NC(=O)[C@H](Cc3ccc(OCC(=O)O)cc3)NC(=O)[C@H](CN)NC(=O)CSC[C@@H](C(=O)N[C@@H](CCN)C(=O)NCCOCCOCC(=O)NCCCCCCCCCCC(=O)O)NC(=O)[C@H](CCC(=O)O)NC(=O)[C@H](C(C)C)NC(=O)[C@H](Cc3ccc(F)cc3)NC(=O)[C@H](CCN)NC(=O)[C@@H](CC(C)C)NC(=O)[C@H](CCCN)NC(=O)[C@H](Cc3ccc(OCC(=O)O)cc3)NC(=O)[C@H](Cc3ccc(-c4ccccc4)cc3)NC(=O)[C@H](Cc3ccc(C(=O)O)cc3)NC2=O)c1` [Compound 1270] ({CH2CO}-[Dap]Y(Carboxymethyl)D[Phe(3-Me)][Phe(4-COOH)][Bip]Y(Carboxymethyl)[Orn][dL][Dab][Phe(4-F)]VEC[Dab][AEEA][Aun]-OH; thioether N-14), the IC50 amounted to 0.0484 µM. The same measure for `Cc1cccc(C[C@@H]2NC(=O)[C@H](CC(=O)O)NC(=O)[C@H](Cc3ccc(C(=O)O)cc3)NC(=O)[C@H](Cc3ccncc3)NC(=O)CSC[C@@H](C(=O)NCCOCCOCC(=O)NCCOCCOCC(=O)NCCCCCCCCCCC(=O)O)NC(=O)[C@H](Cc3cnc[nH]3)NC(=O)[C@H](C(C)(C)O)NC(=O)[C@H](CC3CCCCC3)NC(=O)[C@H](CCN)NC(=O)[C@@H](CC(C)C)NC(=O)[C@H](CCCN)NC(=O)[C@H](Cc3ccc(OCC(=O)O)cc3)NC(=O)[C@H](Cc3ccc(-c4ccccc4)cc3)NC(=O)[C@H](Cc3ccc(OCC(=O)O)cc3)NC2=O)c1` [Compound 3735] ({CH2CO}-[4Pal][Phe(4-COOH)]D[Phe(3-Me)]Y(Carboxymethyl)[Bip]Y(Carboxymethyl)[Orn][dL][Dab][Cha][Val(3-OH)]HC[AEEA][AEEA][Aun]-OH; thioether N-14): 0.0206 µM. The same measure for `Cc1cccc(C[C@@H]2NC(=O)[C@H](CC(=O)O)NC(=O)[C@H](Cc3ccc(OCC(=O)O)cc3)NC(=O)[C@H](CN)NC(=O)CSC[C@@H](C(=O)N[C@@H](CCN)C(=O)NCCOCCOCC(=O)NCCCCCCCCCCC(=O)O)NC(=O)[C@H](CN)NC(=O)[C@H](C(C)C)NC(=O)[C@H](CC3CCCCC3)NC(=O)[C@H](CCN)NC(=O)[C@@H](CC(C)C)NC(=O)[C@H](CCCN)NC(=O)[C@H](CCC(=O)O)NC(=O)[C@H](Cc3ccc(-c4ccccc4)cc3)NC(=O)[C@H](C(C)C)NC2=O)c1` [Compound 2661] ({CH2CO}-[Dap]Y(Carboxymethyl)D[Phe(3-Me)]V[Bip]E[Orn][dL][Dab][Cha]V[Dap]C[Dab][AEEA][Aun]-OH; thioether N-14): 0.0109 µM; for `CC(=O)NCCCC[C@@H]1NC(=O)[C@H](C(C)(C)O)NC(=O)[C@H](CC2CCCCC2)NC(=O)[C@H](CCN)NC(=O)[C@@H](CC(C)C)NC(=O)[C@H](CCCN)NC(=O)[C@H](Cc2ccc(C(=O)O)cc2)NC(=O)[C@H](Cc2ccc(-c3ccccc3)cc2)NC(=O)[C@H](Cc2ccc(C(=O)O)cc2)NC(=O)[C@H](Cc2cccc(C)c2)NC(=O)[C@H](CC(=O)O)NC(=O)[C@H](Cc2ccc(OC(F)(F)F)cc2)NC(=O)[C@H](Cc2ccc(OCC(=O)O)cc2)NC(=O)CSC[C@@H](C(=O)N[C@@H](CCN)C(=O)NCCOCCOCC(=O)NCCCCCCCCCCCCC(=O)O)NC1=O` [Compound 3859] ({CH2CO}-Y(Carboxymethyl)Y(CF3)D[Phe(3-Me)][Phe(4-COOH)][Bip][Phe(4-COOH)][Orn][dL][Dab][Cha][Val(3-OH)]K(Ac)C[Dab][AEEA]-{NH(CH2)12COOH}; thioether N-14): 0.0527 µM; for `CCC[C@@H]1NC(=O)CSC[C@@H](C(=O)N[C@@H](CCN)C(=O)NCCOCCOCCOCCOCCC(=O)NCCCCCCCCCCCCCCC(=O)O)NC(=O)[C@H](CO)NC(=O)[C@H](C(C)(C)O)NC(=O)[C@H](CC2CCCCC2)NC(=O)[C@H](CCN)NC(=O)[C@@H](CC(C)C)NC(=O)[C@H](CCCN)NC(=O)[C@H](Cc2ccc(C(=O)O)cc2)NC(=O)[C@H](Cc2ccc(-c3ccccc3)cc2)NC(=O)[C@H](Cc2ccc(C(=O)O)cc2)NC(=O)[C@H](Cc2cccc(C(F)(F)F)c2)NC(=O)[C@H](CC(=O)O)NC(=O)[C@H](Cc2ccc(OCC(=O)O)cc2)NC1=O` [Compound 2906] ({CH2CO}-[Nva]Y(Carboxymethyl)D[Phe(3-CF3)][Phe(4-COOH)][Bip][Phe(4-COOH)][Orn][dL][Dab][Cha][Val(3-OH)]SC[Dab][PEG4]-{NH(CH2)14COOH}; thioether N-14): 0.0977 µM. The same measure for `CC(C)C[C@H]1NC(=O)[C@H](CCCN)NC(=O)[C@H](C(C)C)NC(=O)[C@H](Cc2ccc(-c3ccccc3)cc2)NC(=O)[C@H](C(C)C)NC(=O)[C@H](Cc2c[nH]c3ccccc23)NC(=O)[C@H](CC(=O)O)NC(=O)[C@H](Cc2ccc(OCC(=O)O)cc2)NC(=O)[C@H](C(C)O)NC(=O)CSC[C@@H](C(=O)N[C@@H](CCN)C(=O)NCCCCCCCCCCC(=O)O)NC(=O)[C@H](CCN)NC(=O)[C@H](C(C)O)NC(=O)[C@H](CC2CCCCC2)NC(=O)[C@H](CCN)NC1=O` (stereo partly drawn) [Compound 3674] ({CH2CO}-[Thr(3ξ)]Y(Carboxymethyl)DWV[Bip]V[Orn][dL][Dab][Cha][Thr(3ξ)][Dab]C[Dab][Aun]-OH; thioether N-14): 0.0134 µM.
